Measured values published in PubChem BioAssay (NCI).
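Step 1: Grow cells in 96-well plates. Step 2: Expose to compound for 48 hours at 5 concentrations. Step 3: Interpolate endpoints linearly; if unreached, use highest concentration. The concentration for full growth arrest is given as TGI.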

Assays:
Experiment in all cases: growth of human tumour cells (NCI), 48 h
786-0 renal = test system: 786-0 renal
HL-60(TB) leukemia = test system: HL-60(TB) leukemia
OVCAR-5 ovarian = test system: OVCAR-5 ovarian
OVCAR-3 ovarian = test system: OVCAR-3 ovarian
NCI-H23 lung = test system: NCI-H23 lung
SN12C renal = test system: SN12C renal
UACC-62 melanoma = test system: UACC-62 melanoma
MOLT-4 leukemia = test system: MOLT-4 leukemia
BT-549 breast = test system: BT-549 breast
PC-3 prostate = test system: PC-3 prostate
SW-620 colon = test system: SW-620 colon
NCI-H460 lung = test system: NCI-H460 lung
DU-145 prostate = test system: DU-145 prostate
U251 CNS = test system: U251 CNS
HCT-116 colon = test system: HCT-116 colon
SNB-19 CNS = test system: SNB-19 CNS
SNB-75 CNS = test system: SNB-75 CNS
MDA-MB-435 = test system: MDA-MB-435
SR leukemia = test system: SR leukemia
ACHN renal = test system: ACHN renal
SF-295 CNS = test system: SF-295 CNS
HCT-15 colon = test system: HCT-15 colon
OVCAR-8 ovarian = test system: OVCAR-8 ovarian
A549 NSCLC = test system: A549 NSCLC
MCF7 breast = test system: MCF7 breast
MALME-3M melanoma = test system: MALME-3M melanoma
SK-MEL-5 melanoma = test system: SK-MEL-5 melanoma
HCC-2998 colon = test system: HCC-2998 colon
HOP-62 NSCLC = test system: HOP-62 NSCLC
UACC-257 melanoma = test system: UACC-257 melanoma
HS 578T breast = test system: HS 578T breast
IGROV1 ovarian = test system: IGROV1 ovarian
KM12 colon = test system: KM12 colon
EKVX NSCLC = test system: EKVX NSCLC
HOP-92 NSCLC = test system: HOP-92 NSCLC
NCI/ADR-RES ovarian = test system: NCI/ADR-RES ovarian
MDA-N = test system: MDA-N
HT29 colon = test system: HT29 colon
RPMI-8226 leukemia = test system: RPMI-8226 leukemia
T-47D breast = test system: T-47D breast
K-562 leukemia = test system: K-562 leukemia
SF-539 CNS = test system: SF-539 CNS
SK-OV-3 ovarian = test system: SK-OV-3 ovarian
CCRF-CEM leukemia = test system: CCRF-CEM leukemia
UO-31 renal = test system: UO-31 renal
SF-268 CNS = test system: SF-268 CNS
NCI-H226 lung = test system: NCI-H226 lung
M14 melanoma = test system: M14 melanoma

Measured: TGI

COc1cc(COC(=O)N2CSCC2C(=O)O)c([N+](=O)[O-])cc1OC (stereo not drawn)
> 100 µM: 786-0 renal | HL-60(TB) leukemia | OVCAR-5 ovarian | OVCAR-3 ovarian | NCI-H23 lung | SN12C renal | UACC-62 melanoma | MOLT-4 leukemia | BT-549 breast | PC-3 prostate | SW-620 colon | NCI-H460 lung | DU-145 prostate | U251 CNS | HCT-116 colon | SNB-19 CNS | SNB-75 CNS | MDA-MB-435 | SR leukemia | ACHN renal | SF-295 CNS | HCT-15 colon | OVCAR-8 ovarian | A549 NSCLC | MCF7 breast | MALME-3M melanoma | SK-MEL-5 melanoma | HCC-2998 colon | HOP-62 NSCLC | UACC-257 melanoma | HS 578T breast | IGROV1 ovarian | KM12 colon | EKVX NSCLC | HOP-92 NSCLC | NCI/ADR-RES ovarian | MDA-N | HT29 colon | RPMI-8226 leukemia | T-47D breast | K-562 leukemia | SF-539 CNS | SK-OV-3 ovarian | CCRF-CEM leukemia | UO-31 renal | SF-268 CNS | NCI-H226 lung | M14 melanoma
